{"source": "patent US7303758B2", "about": "(Cordis Corporation, priority 2004, dated 2007)", "key": {"[1]": {"test": "In vivo release kinetics from PVDF basecoat with PVDF topcoat, porcine pharmacokinetics studies", "details": "six hundred micro grams basecoat, two hundred micro grams topcoat", "description": "The topcoat is two hundred micro grams."}, "[2]": {"tested_on": "non-synchronized cultured human coronary artery smooth muscle cells", "test": "Anti-proliferative activity of rapamycin with varying mycophenolic acid concentrations", "format": "cell-based", "details": "mycophenolic acid zero to one thousand nano molar, two percent fetal bovine serum", "description": "The multiple curves represent various concentrations of mycophenolic acid ranging from zero to one thousand nano molar concentrations. […] This potentiation observed in cultured coronary artery smooth muscle cells preferably translates to an enhancement in anti-restenotic efficacy following vascular injury and a reduction in the required amount of either agent to achieve the desired anti-restenotic effect."}, "[3]": {"test": "In vivo release kinetics from EVA/BMA basecoat, porcine pharmacokinetics studies", "details": "basecoat 180 μg rapamycin, 180 μg mycophenolic acid, 240 μg EVA/BMA, with or without BMA topcoat"}, "[4]": {"tested_on": "human coronary artery smooth muscle cell proliferation", "test": "In vitro cell culture study of coronary artery smooth muscle cell proliferation", "format": "cell-based", "description": "FIG. 51 is a graph of the inhibition of coronary artery smooth muscle cells by trichostatin A in a cell culture study."}, "tumor cell lines": {"tested_on": "tumor cell lines", "details": "cited from earlier work"}}}
{"smiles": "CO[C@H]1C[C@@H]2CC[C@@H](C)[C@@](O)(O2)C(=O)C(=O)N2CCCC[C@H]2C(=O)O[C@H]([C@H](C)C[C@@H]2CC[C@@H](O)[C@H](OC)C2)CC(=O)[C@H](C)/C=C(\\C)[C@@H](O)[C@@H](OC)C(=O)[C@H](C)C[C@H](C)/C=C/C=C/C=C/1C", "note": "[Rapamycin, rapamycin]", "values": [{"measurement": "in vivo release rate from PVDF basecoat with PVDF topcoat", "setting": "[1]", "result": "slower release rate than that of mycophenolic acid"}]}
{"smiles": "COc1c(C)c2c(c(O)c1C/C=C(\\C)CCC(=O)O)C(=O)OC2", "note": "[mycophenolic acid]", "values": [{"measurement": "effect on anti-proliferative rapamycin dose response curve", "setting": "[2]", "result": "potentiates the anti-proliferative activity of rapamycin"}, {"measurement": "in vivo release from EVA/BMA basecoat", "setting": "[3]", "result": "elutes more completely over a shorter duration than the rapamycin"}]}
{"smiles": "CC(/C=C/C(=O)NO)=C\\[C@@H](C)C(=O)c1ccc(N(C)C)cc1", "note": "[trichostatin A]", "values": [{"measurement": "IC50", "setting": "[4]; human coronary artery smooth muscle cells, read-out: anti-proliferative IC50", "result": "~6", "unit": "nM"}, {"measurement": "inhibition of human coronary artery smooth muscle cell proliferation", "setting": "[4]; in vitro cell culture", "result": "completely inhibit"}, {"measurement": "anti-proliferative IC50", "setting": "tumor cell lines", "result": "low nM range"}]}
